Experimental data taken from PubChem BioAssay (NCI).
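These data come from cells grown in 96-well plates and exposed to compound for 48 hours at five concentrations. At the TGI there is no net growth.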

Experiments:
Test in all cases: growth of human tumour cells (NCI), 48 h
[1] = test system: M14 melanoma
[2] = test system: SF-295 CNS
[3] = test system: RXF 393 renal
[4] = test system: RPMI-8226 leukemia
[5] = test system: HCT-116 colon
[6] = test system: T-47D breast
[7] = test system: BT-549 breast
[8] = test system: EKVX NSCLC
[9] = test system: HL-60(TB) leukemia
[10] = test system: OVCAR-4 ovarian

Row | Compound | TGI [1] [µM] | TGI [2] [µM] | TGI [3] [µM] | TGI [4] [µM] | TGI [5] [µM] | TGI [6] [µM] | TGI [7] [µM] | TGI [8] [µM] | TGI [9] [µM] | TGI [10] [µM]
1 | O=CN(O)CC(=O)O.[Ni] | > 100 | > 100 | > 100 | > 100 | > 100 | > 100 | > 100 | > 100 | > 100 | > 100
2 | O=C(Nc1ccccc1)c1cc2c(cc1Cl)SC(NNCCO)=NS2(=O)=O | > 100 | > 100 | > 100 | > 100 | > 100 | > 100 | > 100 | > 100 | > 100 | > 100
3 | O=C(O)c1cccc(S(=O)(=O)NN2C(=O)CSC2c2ccccc2Cl)c1 (centres undefined) | > 100 | > 100 | > 100 | > 100 | > 100 | > 100 | > 100 | > 100 | > 100 | –
4 | CSc1ncc2c(C#N)c3ccccn3c(=O)c2n1 | > 100 | > 100 | > 100 | > 100 | > 100 | > 100 | > 100 | > 100 | > 100 | > 100
5 | CCn1c(SCC(=O)NNC(=S)Nc2ccc(Cl)cc2)nc2ccccc2c1=O | > 100 | > 100 | > 100 | 94.8 | > 100 | 83 | > 100 | > 100 | 84.9 | > 100
6 | C[As](C)SCC(NC(=O)CCC(N)C(=O)O)C(=O)NCC(=O)O.Cl.c1ccncc1 (centres undefined) | 1.12 | 12.7 | 0.398 | 1.56 | 1.53 | 1.19 | 1.57 | 3.08 | 0.878 | 2.64
7 | c1csc(-c2cscc2-c2cccs2)c1 | > 100 | > 100 | 77.7 | > 100 | > 100 | > 100 | > 100 | > 100 | > 100 | > 100
8 | CC(=O)OCC1=C2C(OC(=O)C(C)C)CC3(COC(C)=O)OC3/C=C\C3(C)OC3C2OC1=O (centres undefined) | > 100 | > 100 | > 100 | > 100 | > 100 | > 100 | > 100 | > 100 | > 100 | > 100
